Counter-ions that a name gives are not always drawn. Like-named read-outs stand apart in the source and are kept apart here.
Assay: Intravenous and buccal pharmacokinetic study in the minipig
Assay type: in vivo
Settings: male, Göttingen, in vivo
Method: The test article was compound 10. The vehicles for the test article were Sterile saline (0.9% NaCl) (intravenous administration) supplied by Baxter, Norfolk or Ascorbic acid reconstituted in Water for Injection (buccal administration) supplied by VWR International, Leicestershire. Formulations were prepared on the day of dosing.
Three male minipigs of the Göttingen ApS strain were supplied by Ellegaard Göttingen, Dalmose, Denmark. At initiation of dosing, animals were approximately 15 to 17 weeks old. Each animal was dosed once on three separate occasions according to the following study design:
Animals were deprived of food overnight and anaesthetised with isoflurane in oxygen (administered by facemask), prior to each dosing occasion.
Intravenous administrations were performed by slow manual injection via a temporary catheter placed in the ear vein whilst under anaesthesia, animals were allowed to recover from the anaesthesia immediately after dosing. Whilst anaesthetised, a catheter was inserted into the jugular vein and secured in place for the purpose of blood collection. The catheter was filled with heparin (250 iu/mL in 0.9% sodium chloride). The exterior portion of the catheter was routed from the ventral neck to the dorsum of the minipig and protected by bandaging. The distal end of the catheter was capped and placed in a re-sealable pouch within the bandage. The jugular catheter was retained in place and flushed with heparinised saline every 24 hours.
Buccal administrations were performed by applying the test formulation to the buccal membrane for 5 minutes while the animal was anaesthetised. Any residual formulation remaining in the mouth after the 5 minute application was […]. Animals were allowed to recover from the anaesthesia immediately after dosing.
, all animals on Day 3 following buccal administration of a low dose and all animals on Day 5 following buccal administration of a high dose for pharmacokinetic analysis. The samples (1.0 mL) were collected from the jugular vein (via catheter) into tubes containing EDTA anticoagulant. Prior to addition of the blood sample, 100 microL of a stabiliser (2% beta-mercaptoethanol containing 20 mg/mL ascorbic acid) was added to each pot. The stabiliser was prepared fresh on each day of sample collection. Samples were collected as follows: • Day 1: 5, 10, 15, 30 and 45 minutes and 1, 2, 4, 6, 8, 12 and 16 hours post-dose • Day 3: pre-dose and at 5, 10, 15, 30 and 45 minutes and 1, 2, 4, 6, 8, 12, 16 and 24 hours post-dose • Day 5: pre-dose and at 5, 10, 15, 30 and 45 minutes and 1, 2, 4, 6, 8, 12, 16 and 24 hours post-dose
The times of the blood sampling were generally adhered to. The greatest deviation from the scheduled timepoints was one minute late at the 5 minute timepoint on Day 3. The blood samples were centrifuged within one hour of sample collection and the resultant plasma was frozen prior to analysis.
The plasma concentrations of compound 10 were determined after solid phase extraction of the plasma samples followed by high performance liquid chromatography with tandem mass spectrometric detection (LC-MS/MS) using a sample volume of about 100 microL.
Internal standard solution, containing the internal standard of compound 10 was added to thawed plasma samples (100 microL aliquot). The SPE plate (Oasis HLB, 10 mg) was conditioned with methanol (500 microL) followed by water (500 microL). The sample (approx. 500 microL aliquot) was transferred to the pre-conditioned SPE plate. The sample was then passed through the cartridge, which was then washed with water:methanol (90:10 v/v, 0.5 mL). The sample was then eluted into a fresh 96 well polypropylene collection plate with 20 mM ammonium formate (aq): acetonitrile: formic acid (50:50:2 v/v/v, 250 microL). The organic component of the eluted samples was then evaporated under a gentle stream of nitrogen until approximately 50% of the original volume was remaining. […]

CCCN1CCC[C@@H]2Cc3c(ccc(O)c3O)C[C@H]21 [compound 10, (4aR,10aR)-1-n-Propyl-1,2,3,4,4a,5,10,10a-octahydro-benzo[g]quinoline-6,7-diol hydrobromide]
concentration at 0.17 h (0.01 mg/kg, buccal 0.010 mg/kg, mean, read-out: Plasma concentration Day 3 Hour 0.17, Mean): 0.148 ng/mL
concentration at 0.25 h (0.01 mg/kg, buccal 0.010 mg/kg, mean, read-out: Plasma concentration Day 3 Hour 0.25, Mean): 0.314 ng/mL
concentration at 0.5 h (0.01 mg/kg, buccal 0.010 mg/kg, mean, read-out: Plasma concentration Day 3 Hour 0.5, Mean): 0.752 ng/mL
concentration at 0.75 h (0.01 mg/kg, buccal 0.010 mg/kg, mean, read-out: Plasma concentration Day 3 Hour 0.75, Mean): 1.04 ng/mL
concentration at 1 h (0.01 mg/kg, buccal 0.010 mg/kg, mean, read-out: Plasma concentration Day 3 Hour 1, Mean): 0.869 ng/mL
concentration at 2 h (0.01 mg/kg, buccal 0.010 mg/kg, mean, read-out: Plasma concentration Day 3 Hour 2, Mean): 0.487 ng/mL
bioavailability (0.01 mg/kg, buccal 0.010 mg/kg, range, read-out: bioavailability): 30 to 42%
bioavailability (0.01 mg/kg, buccal 0.010 mg/kg, read-out: bioavailability, mean values): 31 to 35%
half-life (0.01 mg/kg, buccal 0.010 mg/kg, read-out: mean apparent terminal half-life (converted)): 5.1 h
Tmax (0.04 mg/kg, buccal 0.040 mg/kg, animal 1): 1 h
concentration at 0.5 h (0.04 mg/kg, buccal 0.040 mg/kg, individual animals 1-3, read-out: Plasma concentration Day 5 Hour 0.5): 7.88 ng/mL
concentration at 0.75 h (0.04 mg/kg, buccal 0.040 mg/kg, individual animals 1-3, read-out: Plasma concentration Day 5 Hour 0.75): 15.9 ng/mL
concentration at 1 h (0.04 mg/kg, buccal 0.040 mg/kg, individual animals 1-3, read-out: Plasma concentration Day 5 Hour 1): 11.9 ng/mL
concentration at 4 h (0.04 mg/kg, buccal 0.040 mg/kg, mean, read-out: Plasma concentration Day 1 Hour 4, Mean): 1.93 ng/mL
concentration at 6 h (0.04 mg/kg, buccal 0.040 mg/kg, mean, read-out: Plasma concentration Day 1 Hour 6, Mean): 0.93 ng/mL
concentration at 8 h (0.04 mg/kg, buccal 0.040 mg/kg, mean, read-out: Plasma concentration Day 1 Hour 8, Mean): 0.522 ng/mL
concentration at 12 h (0.04 mg/kg, buccal 0.040 mg/kg, mean, read-out: Plasma concentration Day 1 Hour 12, Mean): 0.604 ng/mL
concentration at 16 h (0.04 mg/kg, buccal 0.040 mg/kg, mean, read-out: Plasma concentration Day 1 Hour 16, Mean): 0.292 ng/mL
concentration at 24 h (0.04 mg/kg, buccal 0.040 mg/kg, mean, read-out: Plasma concentration Day 1 Hour 24, Mean): 0.119 ng/mL
concentration at 0.08 h (0.04 mg/kg, buccal 0.040 mg/kg, mean, read-out: Plasma concentration Day 5 Hour 0.08, Mean): 1.29 ng/mL
concentration at 0.17 h (0.04 mg/kg, buccal 0.040 mg/kg, mean, read-out: Plasma concentration Day 5 Hour 0.17, Mean): 3.27 ng/mL
concentration at 0.25 h (0.04 mg/kg, buccal 0.040 mg/kg, mean, read-out: Plasma concentration Day 5 Hour 0.25, Mean): 5.45 ng/mL
concentration at 0.5 h (0.04 mg/kg, buccal 0.040 mg/kg, mean, read-out: Plasma concentration Day 5 Hour 0.5, Mean): 7.14 ng/mL
concentration at 0.75 h (0.04 mg/kg, buccal 0.040 mg/kg, mean, read-out: Plasma concentration Day 5 Hour 0.75, Mean): 12.4 ng/mL
concentration at 1 h (0.04 mg/kg, buccal 0.040 mg/kg, mean, read-out: Plasma concentration Day 5 Hour 1, Mean): 10.8 ng/mL
concentration at 2 h (0.04 mg/kg, buccal 0.040 mg/kg, mean, read-out: Plasma concentration Day 5 Hour 2, Mean): 6.3 ng/mL
bioavailability (0.04 mg/kg, buccal 0.040 mg/kg, range, read-out: bioavailability): 73 to 136%
bioavailability (0.04 mg/kg, buccal 0.040 mg/kg, read-out: bioavailability, mean values): 105 to 122%
half-life (0.04 mg/kg, buccal 0.040 mg/kg, read-out: mean apparent terminal half-life (converted)): 5.6 h
half-life (IV bolus 0.0025 mg/kg, range of animals, read-out: apparent terminal elimination half-life (t½)): 3.4 to 4.3 h
half-life (IV bolus 0.025 mg/kg (as printed in conclusion), read-out: individual apparent terminal elimination half-life): 3.4 to 4.3 h
half-life (buccal, range in individual animals, read-out: apparent terminal elimination half-life): 3.1 to 5.6 h
concentration at 0.08 h (iv, 0.0025 mg/kg, IV 0.0025 mg/kg, individual animals 1-3, read-out: Plasma concentration Day 1 Hour 0.08): 1.21 ng/mL
concentration at 0.17 h (iv, 0.0025 mg/kg, IV 0.0025 mg/kg, individual animals 1-3, read-out: Plasma concentration Day 1 Hour 0.17): 0.834 ng/mL
concentration at 0.25 h (iv, 0.0025 mg/kg, IV 0.0025 mg/kg, individual animals 1-3, read-out: Plasma concentration Day 1 Hour 0.25): 0.74 ng/mL
concentration at 0.5 h (iv, 0.0025 mg/kg, IV 0.0025 mg/kg, individual animals 1-3, read-out: Plasma concentration Day 1 Hour 0.5): 0.562 ng/mL
concentration at 0.75 h (iv, 0.0025 mg/kg, IV 0.0025 mg/kg, individual animals 1-3, read-out: Plasma concentration Day 1 Hour 0.75): 0.534 ng/mL
concentration at 1 h (iv, 0.0025 mg/kg, IV 0.0025 mg/kg, individual animals 1-3, read-out: Plasma concentration Day 1 Hour 1): 0.379 ng/mL
concentration at 2 h (iv, 0.0025 mg/kg, IV 0.0025 mg/kg, individual animals 1-3, read-out: Plasma concentration Day 1 Hour 2): 0.198 ng/mL
concentration at 4 h (iv, 0.0025 mg/kg, IV 0.0025 mg/kg, individual animals 1-3, read-out: Plasma concentration Day 1 Hour 4): 0.0748 ng/mL
concentration at 6 h (iv, 0.0025 mg/kg, IV 0.0025 mg/kg, individual animals 1-3, read-out: Plasma concentration Day 1 Hour 6): 0.0476 ng/mL
concentration at 8 h (iv, 0.0025 mg/kg, IV 0.0025 mg/kg, individual animals 1-3, read-out: Plasma concentration Day 1 Hour 8): 0.0245 ng/mL
concentration at 12 h (iv, 0.0025 mg/kg, IV 0.0025 mg/kg, individual animals 1-3, read-out: Plasma concentration Day 1 Hour 12): 0.017 ng/mL
concentration at 16 h (iv, 0.0025 mg/kg, IV 0.0025 mg/kg, individual animals 1-3, values below LLOQ 10 pg/mL estimated, read-out: Plasma concentration Day 1 Hour 16): 0.00858 ng/mL
concentration at 0.08 h (iv, 0.0025 mg/kg, IV 0.0025 mg/kg, mean, read-out: Plasma concentration Day 1 Hour 0.08, Mean): 1.62 ng/mL
concentration at 0.17 h (iv, 0.0025 mg/kg, IV 0.0025 mg/kg, mean, read-out: Plasma concentration Day 1 Hour 0.17, Mean): 1.02 ng/mL
concentration at 0.25 h (iv, 0.0025 mg/kg, IV 0.0025 mg/kg, mean, read-out: Plasma concentration Day 1 Hour 0.25, Mean): 0.913 ng/mL
concentration at 0.5 h (iv, 0.0025 mg/kg, IV 0.0025 mg/kg, mean, read-out: Plasma concentration Day 1 Hour 0.5, Mean): 0.673 ng/mL
concentration at 0.75 h (iv, 0.0025 mg/kg, IV 0.0025 mg/kg, mean, read-out: Plasma concentration Day 1 Hour 0.75, Mean): 0.619 ng/mL
concentration at 1 h (iv, 0.0025 mg/kg, IV 0.0025 mg/kg, mean, read-out: Plasma concentration Day 1 Hour 1, Mean): 0.421 ng/mL
concentration at 2 h (iv, 0.0025 mg/kg, IV 0.0025 mg/kg, mean, read-out: Plasma concentration Day 1 Hour 2, Mean): 0.249 ng/mL
concentration at 4 h (iv, 0.0025 mg/kg, IV 0.0025 mg/kg, mean, read-out: Plasma concentration Day 1 Hour 4, Mean): 0.0887 ng/mL
concentration at 6 h (iv, 0.0025 mg/kg, IV 0.0025 mg/kg, mean, read-out: Plasma concentration Day 1 Hour 6, Mean): 0.0598 ng/mL
concentration at 8 h (iv, 0.0025 mg/kg, IV 0.0025 mg/kg, mean, read-out: Plasma concentration Day 1 Hour 8, Mean): 0.033 ng/mL
concentration at 12 h (iv, 0.0025 mg/kg, IV 0.0025 mg/kg, mean, read-out: Plasma concentration Day 1 Hour 12, Mean): 0.0226 ng/mL
concentration at 16 h (iv, 0.0025 mg/kg, IV 0.0025 mg/kg, mean, read-out: Plasma concentration Day 1 Hour 16, Mean): 0.00931 ng/mL

Reference: patent publication US20120077836A1, “METHODS OF ADMINISTERING (4AR,10AR)-1-N-PROPYL-1,2,3,4,4A,5,10,10A-OCTAHYDROBENZO [G] QUINOLINE-6,7-DIOL AND RELATED COMPOUNDS ACROSS THE ORAL MUCOSA, THE NASAL MUCOSA OR THE SKIN AND PHARMACEUTICAL COMPOSITIONS THEREOF” (priority 2009, published 2012)
